{"source": "PubChem BioAssay AID2060605", "about": "(Molecular Pharmacology Branch, DTP, NCI, 2025);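 note: spheroids exposed to compounds for one week before readout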;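 for viability, T/C: 100% = DMSO vehicle control wells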", "tested_on": "947758-054-R-J2-PDC spheroid growth, percent test/control", "experiment": "Anticancer human tumor 947758-054-R-J2-PDC patient-derived colon adenocarcinoma cell line growth inhibition [CLK]", "details": "spheroids with HUVEC and MSC; for IC50: curve of first compound; for viability, T/C: stronger effect = lower value", "in_short": "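Multi-cell-type spheroids combined patient-derived tumor cells with HUVEC endothelial cells and human mesenchymal stem cells. Paired agents were dosed in half-log steps down from about clinical Cmax, or from 10 microM where Cmax was unknown.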", "data": [{"smiles": "CC(C)CC(NC(=O)C(Cc1ccccc1)NC(=O)c1cnccn1)B(O)O", "note": "(centres undefined) + CNC(=O)c1ccc(Nc2nc(OC3CCCC3)c3c(-c4ccc5nc(C)oc5c4)c[nH]c3n2)c(OC)c1", "values": [{"measurement": "IC50", "setting": "second compound 0.0316 µM", "result": 1.85, "unit": "nM"}, {"measurement": "IC50", "setting": "second compound 0.1 µM", "result": 1.66, "unit": "nM"}, {"measurement": "IC50", "setting": "second compound 0.316 µM", "result": 1.72, "unit": "nM"}, {"measurement": "IC50", "setting": "second compound 1 µM", "result": 1.42, "unit": "nM"}, {"measurement": "IC50", "setting": "second compound 3.16 µM", "result": "< 0.949", "unit": "nM"}, {"measurement": "IC50", "setting": "second compound 10 µM", "result": "< 0.949", "unit": "nM"}, {"measurement": "viability, T/C", "setting": "second compound 0.0316 µM, first compound 0.000949 µM", "result": 117, "unit": "%"}, {"measurement": "viability, T/C", "setting": "second compound 0.0316 µM, first compound 0.003 µM", "result": 1.15, "unit": "%"}, {"measurement": "viability, T/C", "setting": "second compound 0.0316 µM, first compound 0.00949 µM", "result": 0.26, "unit": "%"}, {"measurement": "viability, T/C", "setting": "second compound 0.0316 µM, first compound 0.03 µM", "result": 0.29, "unit": "%"}, {"measurement": "viability, T/C", "setting": "second compound 0.0316 µM, first compound 0.0949 µM", "result": 0.3, "unit": "%"}, {"measurement": "viability, T/C", "setting": "second compound 0.0316 µM, first compound 0.3 µM", "result": 0.28, "unit": "%"}, {"measurement": "viability, T/C", "setting": "second compound 0.1 µM, first compound 0.000949 µM", "result": 89, "unit": "%"}, {"measurement": "viability, T/C", "setting": "second compound 0.1 µM, first compound 0.003 µM", "result": 8.66, "unit": "%"}, {"measurement": "viability, T/C", "setting": "second compound 0.1 µM, first compound 0.00949 µM", "result": 0.26, "unit": "%"}, {"measurement": "viability, T/C", "setting": "second compound 0.1 µM, first compound 0.03 µM", "result": 0.27, "unit": "%"}, {"measurement": "viability, T/C", "setting": "second compound 0.1 µM, first compound 0.0949 µM", "result": 0.25, "unit": "%"}, {"measurement": "viability, T/C", "setting": "second compound 0.1 µM, first compound 0.3 µM", "result": 1.66, "unit": "%"}, {"measurement": "viability, T/C", "setting": "second compound 0.316 µM, first compound 0.000949 µM", "result": 102, "unit": "%"}, {"measurement": "viability, T/C", "setting": "second compound 0.316 µM, first compound 0.003 µM", "result": 1.44, "unit": "%"}, {"measurement": "viability, T/C", "setting": "second compound 0.316 µM, first compound 0.00949 µM", "result": 0.22, "unit": "%"}, {"measurement": "viability, T/C", "setting": "second compound 0.316 µM, first compound 0.03 µM", "result": 0.22, "unit": "%"}, {"measurement": "viability, T/C", "setting": "second compound 0.316 µM, first compound 0.0949 µM", "result": 0.25, "unit": "%"}, {"measurement": "viability, T/C", "setting": "second compound 0.316 µM, first compound 0.3 µM", "result": 0.23, "unit": "%"}, {"measurement": "viability, T/C", "setting": "second compound 1 µM, first compound 0.000949 µM", "result": 75.7, "unit": "%"}, {"measurement": "viability, T/C", "setting": "second compound 1 µM, first compound 0.003 µM", "result": 2.99, "unit": "%"}, {"measurement": "viability, T/C", "setting": "second compound 1 µM, first compound 0.00949 µM", "result": 0.32, "unit": "%"}, {"measurement": "viability, T/C", "setting": "second compound 1 µM, first compound 0.03 µM", "result": 0.21, "unit": "%"}, {"measurement": "viability, T/C", "setting": "second compound 1 µM, first compound 0.0949 µM", "result": 0.26, "unit": "%"}, {"measurement": "viability, T/C", "setting": "second compound 1 µM, first compound 0.3 µM", "result": 0.46, "unit": "%"}, {"measurement": "viability, T/C", "setting": "second compound 3.16 µM, first compound 0.000949 µM", "result": 45.1, "unit": "%"}, {"measurement": "viability, T/C", "setting": "second compound 3.16 µM, first compound 0.003 µM", "result": 0.43, "unit": "%"}, {"measurement": "viability, T/C", "setting": "second compound 3.16 µM, first compound 0.00949 µM", "result": 0.21, "unit": "%"}, {"measurement": "viability, T/C", "setting": "second compound 3.16 µM, first compound 0.03 µM", "result": 0.19, "unit": "%"}, {"measurement": "viability, T/C", "setting": "second compound 3.16 µM, first compound 0.0949 µM", "result": 0.21, "unit": "%"}, {"measurement": "viability, T/C", "setting": "second compound 3.16 µM, first compound 0.3 µM", "result": 0.24, "unit": "%"}, {"measurement": "viability, T/C", "setting": "second compound 10 µM, first compound 0.000949 µM", "result": 38.8, "unit": "%"}, {"measurement": "viability, T/C", "setting": "second compound 10 µM, first compound 0.003 µM", "result": 0.32, "unit": "%"}, {"measurement": "viability, T/C", "setting": "second compound 10 µM, first compound 0.00949 µM", "result": 0.21, "unit": "%"}, {"measurement": "viability, T/C", "setting": "second compound 10 µM, first compound 0.03 µM", "result": 0.2, "unit": "%"}, {"measurement": "viability, T/C", "setting": "second compound 10 µM, first compound 0.0949 µM", "result": 0.23, "unit": "%"}, {"measurement": "viability, T/C", "setting": "second compound 10 µM, first compound 0.3 µM", "result": 0.35, "unit": "%"}]}, {"smiles": "CC1COCCN1c1cc(C2(S(C)(=N)=O)CC2)nc(-c2ccnc3[nH]ccc23)n1", "note": "(centres undefined) + CNC(=O)c1ccc(Nc2nc(OC3CCCC3)c3c(-c4ccc5nc(C)oc5c4)c[nH]c3n2)c(OC)c1", "values": [{"measurement": "IC50", "setting": "second compound 0.0316 µM", "result": 3050, "unit": "nM"}, {"measurement": "IC50", "setting": "second compound 0.1 µM", "result": 2220, "unit": "nM"}, {"measurement": "IC50", "setting": "second compound 0.316 µM", "result": 1820, "unit": "nM"}, {"measurement": "IC50", "setting": "second compound 1 µM", "result": 308, "unit": "nM"}, {"measurement": "IC50", "setting": "second compound 3.16 µM", "result": 196, "unit": "nM"}, {"measurement": "IC50", "setting": "second compound 10 µM", "result": "< 31.6", "unit": "nM"}, {"measurement": "viability, T/C", "setting": "second compound 0.0316 µM, first compound 0.0316 µM", "result": 95.8, "unit": "%"}, {"measurement": "viability, T/C", "setting": "second compound 0.0316 µM, first compound 0.1 µM", "result": 103, "unit": "%"}, {"measurement": "viability, T/C", "setting": "second compound 0.0316 µM, first compound 0.316 µM", "result": 114, "unit": "%"}, {"measurement": "viability, T/C", "setting": "second compound 0.0316 µM, first compound 1 µM", "result": 87, "unit": "%"}, {"measurement": "viability, T/C", "setting": "second compound 0.0316 µM, first compound 3.16 µM", "result": 49.7, "unit": "%"}, {"measurement": "viability, T/C", "setting": "second compound 0.0316 µM, first compound 10 µM", "result": 22.2, "unit": "%"}, {"measurement": "viability, T/C", "setting": "second compound 0.1 µM, first compound 0.0316 µM", "result": 110, "unit": "%"}, {"measurement": "viability, T/C", "setting": "second compound 0.1 µM, first compound 0.1 µM", "result": 105, "unit": "%"}, {"measurement": "viability, T/C", "setting": "second compound 0.1 µM, first compound 0.316 µM", "result": 91.6, "unit": "%"}, {"measurement": "viability, T/C", "setting": "second compound 0.1 µM, first compound 1 µM", "result": 88.8, "unit": "%"}, {"measurement": "viability, T/C", "setting": "second compound 0.1 µM, first compound 3.16 µM", "result": 32.8, "unit": "%"}, {"measurement": "viability, T/C", "setting": "second compound 0.1 µM, first compound 10 µM", "result": 18.8, "unit": "%"}, {"measurement": "viability, T/C", "setting": "second compound 0.316 µM, first compound 0.0316 µM", "result": 90.5, "unit": "%"}, {"measurement": "viability, T/C", "setting": "second compound 0.316 µM, first compound 0.1 µM", "result": 93, "unit": "%"}, {"measurement": "viability, T/C", "setting": "second compound 0.316 µM, first compound 0.316 µM", "result": 71.8, "unit": "%"}, {"measurement": "viability, T/C", "setting": "second compound 0.316 µM, first compound 1 µM", "result": 68, "unit": "%"}, {"measurement": "viability, T/C", "setting": "second compound 0.316 µM, first compound 3.16 µM", "result": 36, "unit": "%"}, {"measurement": "viability, T/C", "setting": "second compound 0.316 µM, first compound 10 µM", "result": 13.2, "unit": "%"}, {"measurement": "viability, T/C", "setting": "second compound 1 µM, first compound 0.0316 µM", "result": 72.4, "unit": "%"}, {"measurement": "viability, T/C", "setting": "second compound 1 µM, first compound 0.1 µM", "result": 53.3, "unit": "%"}, {"measurement": "viability, T/C", "setting": "second compound 1 µM, first compound 0.316 µM", "result": 48.5, "unit": "%"}, {"measurement": "viability, T/C", "setting": "second compound 1 µM, first compound 1 µM", "result": 45.8, "unit": "%"}, {"measurement": "viability, T/C", "setting": "second compound 1 µM, first compound 3.16 µM", "result": 22, "unit": "%"}, {"measurement": "viability, T/C", "setting": "second compound 1 µM, first compound 10 µM", "result": 8.76, "unit": "%"}, {"measurement": "viability, T/C", "setting": "second compound 3.16 µM, first compound 0.0316 µM", "result": 66.8, "unit": "%"}, {"measurement": "viability, T/C", "setting": "second compound 3.16 µM, first compound 0.1 µM", "result": 43.6, "unit": "%"}, {"measurement": "viability, T/C", "setting": "second compound 3.16 µM, first compound 0.316 µM", "result": 47.2, "unit": "%"}, {"measurement": "viability, T/C", "setting": "second compound 3.16 µM, first compound 1 µM", "result": 45.7, "unit": "%"}, {"measurement": "viability, T/C", "setting": "second compound 3.16 µM, first compound 3.16 µM", "result": 19.3, "unit": "%"}, {"measurement": "viability, T/C", "setting": "second compound 3.16 µM, first compound 10 µM", "result": 8.82, "unit": "%"}, {"measurement": "viability, T/C", "setting": "second compound 10 µM, first compound 0.0316 µM", "result": 50.7, "unit": "%"}, {"measurement": "viability, T/C", "setting": "second compound 10 µM, first compound 0.1 µM", "result": 44.7, "unit": "%"}, {"measurement": "viability, T/C", "setting": "second compound 10 µM, first compound 0.316 µM", "result": 40.5, "unit": "%"}, {"measurement": "viability, T/C", "setting": "second compound 10 µM, first compound 1 µM", "result": 26.7, "unit": "%"}, {"measurement": "viability, T/C", "setting": "second compound 10 µM, first compound 3.16 µM", "result": 15.1, "unit": "%"}, {"measurement": "viability, T/C", "setting": "second compound 10 µM, first compound 10 µM", "result": 9.5, "unit": "%"}]}]}
